Reference: patent US9765056B2, “Indole and pyrrole compounds, a process for their preparation and pharmaceutical compositions containing them” (LES LABORATOIRES SERVIER, priority 2013, dated 2017)
Where a name gives a salt, the structure may show the parent alone.

Assays:
[1] = test system: RS4;11 leukaemia tumour line; test: In vitro cytotoxicity, Microculture Tetrazolium Assay (MTT); assay type: cell-based; conditions: Homo sapiens; RS4;11 cells, 48 hours exposure
Method: The cytotoxicity studies were carried out on the RS4;11 leukaemia tumour line.
The cells are distributed onto microplates and exposed to the test compounds for 48 hours. The cell viability is then quantified by a colorimetric assay, the Microculture Tetrazolium Assay (Cancer Res., 1987, 47, 939-942).

Bcl-2 protein = Bcl-2 protein (histag-Bcl-2, UniProtKB P10415) (Homo sapiens (Human), UniProt P10415); test: Inhibition of Bcl-2 by the fluorescence polarisation technique; assay type: binding; conditions: for IC50: fluorescence polarisation test, method A, or method B where underlined (underlining not visible), read-out: IC50 (nM) Bcl-2 FP
Sequence of Bcl-2 protein (P10415 whole entry): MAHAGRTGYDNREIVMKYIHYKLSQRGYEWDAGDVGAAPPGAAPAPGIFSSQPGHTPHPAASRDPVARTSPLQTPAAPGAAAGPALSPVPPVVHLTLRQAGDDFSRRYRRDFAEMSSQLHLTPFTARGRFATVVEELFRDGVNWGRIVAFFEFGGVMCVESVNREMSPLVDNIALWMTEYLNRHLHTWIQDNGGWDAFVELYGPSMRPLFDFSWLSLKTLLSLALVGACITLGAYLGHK
Description: Inhibition of Bcl-2 by the fluorescence polarisation technique

Compound	IC50 [1] [nM]	IC50 (Bcl-2 protein) [nM]	inhibition at 10 µM (Bcl-2 protein; read-out: percentage fluorescence polarisation inhibition (Bcl-2 FP)) [%]
Cc1ccc(N(C(=O)c2cn(-c3cc4c(cc3C(=O)N3Cc5ccccc5C[C@H]3CN3CCN(C)CC3)OCO4)c3ccccc23)c2ccc(O)cc2)cc1 [Example 32, N-(4-Hydroxyphenyl)-N-(4-methylphenyl)-1-(6-{[(3S)-3-[(4-methylpiperazin-1-yl)methyl]-3,4-dihydroisoquinolin-2(1H)-yl]carbonyl}-1,3-benzodioxol-5-yl)-1H-indole-3-carboxamide]	63.7	3.5	
Cc1cc(C(=O)N(c2ccccc2)c2ccc(O)cc2)cn1-c1ccc(OC(F)(F)F)cc1C(=O)N1Cc2ccccc2C[C@H]1CN1CCN(C)CC1 [Example 19, N-(4-Hydroxyphenyl)-5-methyl-1-[2-{[(3S)-3-[(4-methylpiperazin-1-yl)methyl]-3,4-dihydroisoquinolin-2(1H)-yl]carbonyl}-4-(trifluoromethoxy)phenyl]-N-phenyl-1H-pyrrole-3-carboxamide]	2360	245	
CCC1COc2cc(-n3cc(C(=O)N(c4ccccc4)c4ccc(O)cc4)c4ccccc43)c(C(=O)N3Cc4ccccc4C[C@H]3CN3CCN(C)CC3)cc2O1 (stereo partly drawn) [Example 185, 1-{2-Ethyl-7-[(3S)-3-[(4-methylpiperazin-1-yl)methyl]-1,2,3,4-tetrahydroisoquinoline-2-carbonyl]-2,3-dihydro-1,4-benzodioxin-6-yl}-N-(4-hydroxyphenyl)-N-phenyl-1H-indole-3-carboxamide]	422	17.3	
CN1CCN(C[C@@H]2Cc3ccccc3CN2C(=O)c2cc3c(cc2-n2cc(C(=O)N(c4ccccc4)c4ccc(O)c(F)c4)c4ccccc42)OCO3)CC1 [Example 34, N-(3-Fluoro-4-hydroxyphenyl)-1-(6-{[(3S)-3-[(4-methylpiperazin-1-yl)methyl]-3,4-dihydroisoquinolin-2(1H)-yl]carbonyl}-1,3-benzodioxol-5-yl)-N-phenyl-1H-indole-3-carboxamide]	133	7.7	
CN1CCN(C[C@@H]2Cc3ccccc3CN2C(=O)c2cc3c(cc2-n2cc(C(=O)N(c4ccc(O)c(F)c4)c4ccc5c(ccn5C)c4)c4ccccc42)OCO3)CC1 [Example 97, N-(3-Fluoro-4-hydroxyphenyl)-N-(1-methyl-1H-indol-5-yl)-1-(6-{[(3S)-3-[(4-methylpiperazin-1-yl)methyl]-3,4-dihydroisoquinolin-2(1H)-yl]carbonyl}-1,3-benzodioxol-5-yl)-1H-indole-3-carboxamide hydrochloride]	73.2	6.1	
CN1CCN(C[C@@H]2Cc3ccccc3CN2C(=O)c2cc3c(cc2-n2cc(C(=O)N(c4ccc(O)cc4)c4ccc5c(ccn5C)c4)c4ccccc42)OCO3)CC1 [Example 45, N-(4-Hydroxyphenyl)-N-(1-methyl-1H-indol-5-yl)-1-(6-{[(3S)-3-[(4-methylpiperazin-1-yl)methyl]-3,4-dihydroisoquinolin-2(1H)-yl]carbonyl}-1,3-benzodioxol-5-yl)-1H-indole-3-carboxamide]	36.5	6.7	
Cc1cc(C(=O)N(c2ccccc2)c2ccc(O)cc2)cn1-c1cc2c(cc1C(=O)N1Cc3ccccc3C[C@H]1CCN1CCOCC1)OCO2 [Example 120, N-(4-Hydroxyphenyl)-5-methyl-1-(6-{[(3S)-3-[2-(morpholin-4-yl)ethyl]-3,4-dihydroisoquinolin-2(1H)-yl]carbonyl}-1,3-benzodioxol-5-yl)-N-phenyl-1H-pyrrole-3-carboxamide hydrochloride]	367	15	
Cc1ccc(N(C(=O)c2cn(-c3cc4c(cc3C(=O)N3Cc5ccccc5C[C@H]3CN3CCN(C)CC3)OCO4)c3ccccc23)C2CCNCC2)cc1 [Example 98, N-(4-Methylphenyl)-1-(6-{[(3S)-3-[(4-methylpiperazin-1-yl)methyl]-3,4-dihydroisoquinolin-2(1H)-yl]carbonyl}-1,3-benzodioxol-5-yl)-N-(piperidin-4-yl)-1H-indole-3-carboxamide bis-hydrochloride]	1880		45.1
CN1CCN(C[C@@H]2Cc3ccccc3CN2C(=O)c2cc3c(cc2-n2cc(C(=O)N(CCc4ccccc4)c4ccc(Cl)cc4)c4ccccc42)OCO3)CC1 [Example 36, N-(4-Chlorophenyl)-1-(6-{[(3S)-3-[(4-methylpiperazin-1-yl)methyl]-3,4-dihydroisoquinolin-2(1H)-yl]carbonyl}-1,3-benzodioxol-5-yl)-N-(2-phenylethyl)-1H-indole-3-carboxamide]	2420	1110	
O=C(c1cn(-c2cc(Cl)ccc2C(=O)N2Cc3ccccc3C[C@H]2CN2CCOCC2)c2ccccc12)N(c1ccccc1)c1ccc(O)cc1 [Example 186, 1-{5-Chloro-2-[(3S)-3-(morpholin-4-ylmethyl)-1,2,3,4-tetrahydroisoquinoline-2-carbonyl}phenyl]-N-(4-hydroxyphenyl)-N-phenyl-1H-indole-3-carboxamide hydrochloride]	626	23.5	
CN1CCN(C[C@@H]2Cc3ccccc3CN2C(=O)c2cc3c(cc2-n2cc(C(=O)N(c4ccc(O)cc4)c4ccc(F)c(F)c4)c4ccccc42)OCO3)CC1 [Example 56, N-(3,4-Difluorophenyl)-N-(4-hydroxyphenyl)-1-(6-{[(3S)-3-[(4-methylpiperazin-1-yl)methyl]-3,4-dihydroisoquinolin-2(1H)-yl]carbonyl}-1,3-benzodioxol-5-yl)-1H-indole-3-carboxamide]	135	5	
Cc1ccc(N(C(=O)c2cn(-c3cc4c(cc3C(=O)N3Cc5ccccc5C[C@H]3CN3CCN(C)CC3)OCO4)c3ccccc23)c2ccc3[nH]ccc3c2)cc1 [Example 55, N-(1H-Indol-5-yl)-N-(4-methylphenyl)-1-(6-{[(3S)-3-[(4-methylpiperazin-1-yl)methyl]-3,4-dihydroisoquinolin-2(1H)-yl]carbonyl}-1,3-benzodioxol-5-yl)-1H-indole-3-carboxamide]	1020	57.2	
Cc1cc(C(=O)N(c2ccccc2)c2ccc(O)cc2)cn1-c1cc(F)ccc1C(=O)N1Cc2ccccc2C[C@H]1CN1CCN(C)CC1 [Example 21, 1-(5-fluoro-2-{[(3S)-3-[(4-methylpiperazin-1-yl)methyl]-3,4-dihydroisoquinolin-2(1H)-yl]carbonyl}phenyl)-N-(4-hydroxyphenyl)-5-methyl-N-phenyl-1H-pyrrole-3-carboxamide]	256	24.6	
CN1CCN(C[C@@H]2Cc3ccccc3CN2C(=O)c2ccc(Br)cc2-n2cc(C(=O)N(c3ccc(O)cc3)c3ccc4c(ccn4C)c3)c3ccccc32)CC1 [Example 69, 1-(5-Bromo-2-{[(3S)-3-[(4-methylpiperazin-1-yl)methyl]-3,4-dihydroisoquinolin-2(1H)-yl]carbonyl}phenyl)-N-(4-hydroxyphenyl)-N-(1-methyl-1H-indol-5-yl)-1H-indole-3-carboxamide hydrochloride]	67.6	9	
NC[C@@H]1Cc2ccccc2CN1C(=O)c1ccccc1-n1cc(C(=O)N(c2ccccc2)c2ccccc2)c2ccccc21 [Example 123, 1-{2-[(3S)-3-(Aminomethyl)-1,2,3,4-tetrahydroisoquinoline-2-carbonyl]-phenyl}-N,N-diphenyl-1H-indole-3-carboxamide]	2370	90	
CN1CCN(C[C@@H]2Cc3ccccc3CN2C(=O)c2cc3c(cc2-n2cc(C(=O)N(c4ccc(O)cc4)c4ccc(OC(F)(F)F)cc4)c4ccccc42)OCO3)CC1 [Example 51, N-(4-Hydroxyphenyl)-1-(6-{[(3S)-3-[(4-methylpiperazin-1-yl)methyl]-3,4-dihydroisoquinolin-2(1H)-yl]carbonyl}-1,3-benzodioxol-5-yl)-N-[4-(trifluoro-methoxy)phenyl]-1H-indole-3-carboxamide]	155	6.9	
Cc1cc(C(=O)N(c2ccc(O)cc2)c2ccc(F)cc2)cn1-c1cc2c(cc1C(=O)N1Cc3ccccc3C[C@H]1CN1CCN(C)CC1)OCO2 [Example 84, N-(4-Fluorophenyl)-N-(4-hydroxyphenyl)-5-methyl-1-(6-{[(3S)-3-[(4-methylpiperazin-1-yl)methyl]-3,4-dihydroisoquinolin-2(1H)-yl]carbonyl}-1,3-benzodioxol-5-yl)-1H-pyrrole-3-carboxamide]	146	6.7	
Cc1cc(C(=O)N(c2ccc(O)cc2)c2cccc(N3CCN(C)CC3)c2)cn1-c1cc2c(cc1C(=O)N1Cc3ccccc3C[C@H]1C)OCO2 [Example 112, N-(4-Hydroxyphenyl)-5-methyl-1-(6-{[(3R)-3-methyl-3,4-dihydroisoquinolin-2(1H)-yl]carbonyl}-1,3-benzodioxol-5-yl)-N-[3-(4-methylpiperazin-1-yl)phenyl]-1H-pyrrole-3-carboxamide hydrochloride]	281	11.8	
Cc1cc(C(=O)N(c2ccc(O)cc2)c2ccc3c(c2)CCN3)cn1-c1cc2c(cc1C(=O)N1Cc3ccccc3C[C@H]1CN1CCOCC1)CCC2 [Example 110, N-(2,3-Dihydro-1H-indol-5-yl)-N-(4-hydroxyphenyl)-5-methyl-1-(6-{[(3S)-3-(morpholin-4-ylmethyl)-3,4-dihydroisoquinolin-2(1H)-yl]carbonyl}-2,3-dihydro-1H-inden-5-yl)-1H-pyrrole-3-carboxamide hydrochloride]	291	8.1	
O=C(c1cn(-c2cc(Cl)ccc2C(=O)N2Cc3ccccc3C[C@H]2CN2CCCCC2)c2ccccc12)N(c1ccccc1)c1ccc(O)cc1 [Example 171, 1-{5-Chloro-2-[(3S)-3-(piperidin-1-ylmethyl)-1,2,3,4-tetrahydroisoquinoline-2-carbonyl}phenyl]-N-(4-hydroxyphenyl)-N-phenyl-1H-indole-3-carboxamide]	1050	71.8	
